Experimental data from patent US11331268B2, “Taste masking product” (The University of Western Australia, priority 2016, dated 2022).
Counter-ions that a name gives are not always drawn. Like-named read-outs stand apart in the source and are kept apart here.

Key:
[1] = cited from earlier work
Sprague Dawley rats = assay: Rat Brief-Access Taste Aversion (BATA) model; format: in vivo
Experimental: The rat ‘Brief-Access Taste Aversion’ (BATA) model was used to assess the taste of the midazolam chocolate tablet formulation relative to control samples. Ten male Sprague Dawley rats (average weight […]) previously trained for the experiments were used and two independent tasting evaluations were conducted over 2 days.
Prior to the experiments, the rats were water-deprived for 22 hours but had access to food ad libitum. Each rat was placed into the Lickometer Davis Rig MS-160 (DiLog Instruments, Tallahassee, Fla., USA) for a 40-minute session where it would be presented with 16 sipper tubes mounted on a moving rack controlled by the Davis Collect Data software. The taste samples were each presented to the rat for 8 seconds, in a random order specified by the computer program. Over the 40-minute session, a sample would have been presented to the rat four times, with a 2-second water rinse given between samples. As the rats licked on the sipper, the number of licks was recorded electronically and transmitted to a database on a computer.
The 5 mg midazolam HCl chocolate tablets were assessed against control samples, which included deionized water, vehicle (water adjusted to pH 5 with HCl), 1 mg/mL solution of midazolam in the vehicle, a 2.5 mg/mL oral midazolam syrup manufactured by AUSPMAN, and chocolate placebo tablets. Simulating the advice to patients to chew the chocolate tablet and then swallow, the placebo and midazolam-loaded chocolate tablets were prepared for the taste evaluation by grinding each chocolate tablet in 2 mL of water, which mimics the volume of saliva, using a mortar and pestle. The resultant liquid preparations were then presented to the rats. […]
Aversion to the taste of a sample was indicated by a significant reduction in the number of licks when the sample was presented to the rats. […] Data was analysed using the RStudio software (https://www.rstudio.com) and applying the non-parametric Kruskal Wallis test with post-hoc Tukey's test for paired comparisons.

[2] = cited from earlier work; remark: listed apart in the source

## Cc1ncc2n1-c1ccc(Cl)cc1C(c1ccccc1F)=NC2 [Midazolam, midazolam]
[1]; low pH
  solubility in water: > 2500 µg/mL
[1]; pH>5
  solubility in water: less than 0.1 mg/ml

## Cc1ncc2n1-c1ccc(Cl)cc1C(c1ccccc1F)=NC2 [midazolam HCl, midazolam hydrochloride]
Sprague Dawley rats; Rattus norvegicus, midazolam HCl standard solutions in vehicle (water pH 5), n=2, read-out: IC50 (dose-response of number of licks)
  IC50: 300 ± 290 µg/mL
Sprague Dawley rats; rodent model
  detection threshold for the bitter taste: about 0.03 mg/ml
Sprague Dawley rats; standard solutions in vehicle
  concentration receiving comparable numbers of licks to blank vehicle: up to 0.03 mg/mL

## COc1cccc(C2(O)CCCCC2CN(C)C)c1 (stereo not drawn) [tramadol HCl, tramadol hydrochloride]
[2]
  solubility in aqueous media: ≤ 2000 µg/mL
